BindingDB's records for patent US12496348 (Dana-Farber Cancer Institute, 2025)

Biological target: CREB-binding protein (Homo sapiens, UniProt Q92793)
Experiment: CBP (Bromodomain) AlphaScreen Assay
Description: Assays were performed with minimal modifications from the manufacturer's protocol (PerkinElmer , USA). All reagents were diluted in 50 mM 4-(2-hydroxyethyl)-1-piperazineethanesulfonic acid (HEPES), 150 mM NaCl, 0.1% w/v bovine serum albumin (BSA), 0.01% w/v Tween 20, pH 7.5 and allowed to equilibrate to room temperature prior to addition to plates. After addition of AlphaScreen acceptor beads to master solutions, all subsequent steps were performed under low light conditions. A 2× solution of components with final concentrations of CBP bromodomain at 40 nM, Ni-coated Acceptor Bead at 10 μg/ml, and 7.2 nM biotinylated-Int-2 was added in 10 μL to 384-well plates (AlphaPlate-384, PerkinElmer , USA). Plates were spun down at 150×g, 100 nL of compound in dimethyl sulfoxide (DMSO) from stock plates were added by pin transfer using a Janus Workstation (PerkinElmer , USA). The streptavidin-coated donor beads ([…] final) were added as with previous the solution in a 2×10 μL volume. Following this addition, plates were sealed with foil to prevent light exposure and evaporation. The plates were spun down again at 150×g. Plates were incubated at room temperature for 1 hour and then read on a 2104 EnVision Multilabel Plate Reader (PerkinElmer , USA) using the manufacturer's protocol.

Sequence of CREB-binding protein (Q92793 whole entry): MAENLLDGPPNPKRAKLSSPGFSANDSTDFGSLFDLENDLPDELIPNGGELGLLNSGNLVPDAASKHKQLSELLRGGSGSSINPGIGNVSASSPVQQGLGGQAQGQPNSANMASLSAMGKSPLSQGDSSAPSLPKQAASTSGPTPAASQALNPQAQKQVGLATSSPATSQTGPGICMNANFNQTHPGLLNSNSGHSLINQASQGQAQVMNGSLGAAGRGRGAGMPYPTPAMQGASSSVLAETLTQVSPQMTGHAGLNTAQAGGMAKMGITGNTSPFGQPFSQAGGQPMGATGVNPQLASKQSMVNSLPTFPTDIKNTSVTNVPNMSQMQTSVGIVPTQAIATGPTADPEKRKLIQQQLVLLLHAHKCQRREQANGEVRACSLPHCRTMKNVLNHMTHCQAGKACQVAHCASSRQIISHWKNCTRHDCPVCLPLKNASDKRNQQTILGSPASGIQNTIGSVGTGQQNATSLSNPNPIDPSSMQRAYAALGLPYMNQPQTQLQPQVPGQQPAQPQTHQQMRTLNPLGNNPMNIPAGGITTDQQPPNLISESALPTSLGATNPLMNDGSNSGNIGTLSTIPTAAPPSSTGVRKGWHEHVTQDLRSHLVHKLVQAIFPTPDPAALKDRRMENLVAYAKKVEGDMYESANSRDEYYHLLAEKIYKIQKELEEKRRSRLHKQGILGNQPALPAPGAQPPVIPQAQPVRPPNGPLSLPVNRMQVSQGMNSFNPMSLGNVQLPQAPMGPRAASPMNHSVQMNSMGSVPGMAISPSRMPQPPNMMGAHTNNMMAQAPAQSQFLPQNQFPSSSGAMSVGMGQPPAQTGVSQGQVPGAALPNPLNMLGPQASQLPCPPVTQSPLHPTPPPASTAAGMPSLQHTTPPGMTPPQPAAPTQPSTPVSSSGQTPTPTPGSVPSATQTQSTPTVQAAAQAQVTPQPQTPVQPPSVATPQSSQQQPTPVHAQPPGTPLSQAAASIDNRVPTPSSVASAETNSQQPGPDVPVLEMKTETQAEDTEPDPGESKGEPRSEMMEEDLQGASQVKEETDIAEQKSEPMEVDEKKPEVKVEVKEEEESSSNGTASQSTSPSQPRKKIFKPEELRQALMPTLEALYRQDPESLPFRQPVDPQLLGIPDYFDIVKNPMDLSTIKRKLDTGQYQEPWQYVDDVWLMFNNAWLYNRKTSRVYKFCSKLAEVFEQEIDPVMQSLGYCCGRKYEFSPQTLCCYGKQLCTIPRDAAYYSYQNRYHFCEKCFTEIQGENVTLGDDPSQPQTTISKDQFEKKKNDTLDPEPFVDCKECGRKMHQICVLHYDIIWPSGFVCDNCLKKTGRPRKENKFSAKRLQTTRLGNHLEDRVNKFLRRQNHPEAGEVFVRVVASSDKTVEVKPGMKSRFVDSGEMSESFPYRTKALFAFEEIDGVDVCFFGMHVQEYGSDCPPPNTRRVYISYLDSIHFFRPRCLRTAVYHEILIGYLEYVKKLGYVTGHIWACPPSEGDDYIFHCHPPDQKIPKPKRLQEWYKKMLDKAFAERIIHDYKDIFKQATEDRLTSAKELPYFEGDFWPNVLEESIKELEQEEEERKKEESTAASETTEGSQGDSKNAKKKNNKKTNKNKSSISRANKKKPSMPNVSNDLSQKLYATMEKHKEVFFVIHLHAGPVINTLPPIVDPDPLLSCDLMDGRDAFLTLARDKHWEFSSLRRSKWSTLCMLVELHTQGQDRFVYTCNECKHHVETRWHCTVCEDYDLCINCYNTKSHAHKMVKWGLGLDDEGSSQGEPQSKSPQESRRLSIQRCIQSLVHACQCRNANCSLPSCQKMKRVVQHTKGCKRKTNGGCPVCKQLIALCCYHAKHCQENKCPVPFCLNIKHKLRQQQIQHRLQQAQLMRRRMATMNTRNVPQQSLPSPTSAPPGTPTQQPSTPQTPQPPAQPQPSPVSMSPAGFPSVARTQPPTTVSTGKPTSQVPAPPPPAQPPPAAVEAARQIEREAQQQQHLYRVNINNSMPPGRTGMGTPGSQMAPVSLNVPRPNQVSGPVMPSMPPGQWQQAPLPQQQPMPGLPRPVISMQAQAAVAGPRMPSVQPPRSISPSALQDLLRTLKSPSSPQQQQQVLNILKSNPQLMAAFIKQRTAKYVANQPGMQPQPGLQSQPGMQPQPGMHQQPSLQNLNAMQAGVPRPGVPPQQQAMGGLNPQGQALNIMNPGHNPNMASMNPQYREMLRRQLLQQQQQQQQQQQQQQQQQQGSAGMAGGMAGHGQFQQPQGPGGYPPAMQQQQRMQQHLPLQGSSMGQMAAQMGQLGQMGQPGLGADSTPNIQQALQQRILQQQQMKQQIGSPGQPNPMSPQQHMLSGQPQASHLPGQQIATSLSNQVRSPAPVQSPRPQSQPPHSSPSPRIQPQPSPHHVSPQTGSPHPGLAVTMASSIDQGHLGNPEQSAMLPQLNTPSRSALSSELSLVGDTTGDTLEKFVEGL

Structure (SMILES): Cc1noc(C)c1-c1ccc2nc(-c3ccc(N4CCN(C(=O)CCCCCCCCCCCNc5ccc6c(c5)C(=O)N(C5CCC(=O)NC5=O)C6=O)CC4)cc3)c(NC3CCCCC3)n2c1 (stereo unspecified) [US12496348, Compound 1]
- IC50: 18.9 µM
